Results taken from patent US11192921B2 (priority 2017, dated 2021).
Values joined by “and” are separate entries in the source; they are usually repeats but may differ in a detail not shown here. Identical values can stand only once. Like-named read-outs stand apart in the source and are kept apart here. Marks after values point to notes of the source that are not given here.

Tests used:
[1] = test system: Female Kunming mice
[2] = test system: Kunming mice; format: in vivo
[3] = test system: Kunming mice; conditions: mouse, in vivo
[4] = test system: Female Kunming mice; remark: listed apart in the source
[5] = test system: SD rats; experiment: pain threshold of trigeminal nerve (trigeminal neuralgia model); format: in vivo; conditions: for highest pain threshold on the operative side / pain threshold on the opposite side: 3 h after injection; for Pain threshold: intraperitoneal
[6] = test system: Female Kunming mice; remark: listed apart in the source
[7] = test system: male BALB/c mice; experiment: cancer-induced pain (CIP) model, gross behavior; format: in vivo; conditions: 14th day after inoculation
Protocol: (§1) BALB/c mice were taken, and the right sciatic nerve was exposed; ascites containing 5×10^4 Meth A sarcoma cells were injected into the proximal nerve near the sciatic nerve trochanter far from the tendon branch of the posterior biceps, the wound was closed, and the same volume of normal saline was injected into the left side by performing a sham operation.
On the 4th, 7th, 10th and 14th days after inoculation, spontaneous pain and foot drop and the like occurred before the occurrence of thermal sensitivity and mechanical pain sensitivity behaviors, […]

[8] = test system: Female Kunming mice; format: in vivo
[9] = test system: male BALB/c mice; experiment: cancer-induced pain (CIP) model, thermosensitive test; format: in vivo
Protocol: Influence of Analgesic Polypeptides on Neuralgia in a Cancer-Induced Pain (CIP) Model
A number of male BALB/c mice each weighing 25-30 g were used.
Von Fery monofilament; a microsyringe, 5 mg/mL solutions of polypeptides I, II and II I; normal saline.
as §1
1.3.1 Thermosensitive Test
On the 4th, 7th, 10th and 14th days after inoculation, the latency of foot lifting caused by heat radiation stimulation to animals was observed, and the heat radiation intensity was adjusted to cause the latency of foot lifting of normal mice to be (10±2) s.
All data was expressed as M±SD and subjected to one-way ANOVA.

[10] = 50 μg/kg, injected subcutaneously
[11] = 100 μg/kg, injected subcutaneously

Substance: Gly-Ser-Cys-Ser-Thr-Pro-Pro-d{Cys}-Val-Leu-Tyr-Ser [Polypeptide I]
- Duration of the immobility of mice in tail suspension tests ([1]; 1 h): 20.39 ± 1.21^ s
- Duration of the immobility of mice in tail suspension tests ([1]; 24 h): 18.99 ± 1.48 s
- Duration of the immobility of mice in tail suspension tests ([1]; Time 0): 20.57 ± 1.65 s
- data of tail suspension test compared with the normal saline group ([1]; mouse, in vivo, ip): no significant difference
- toxic side effects compared with the conotoxin (tail suspension) ([1]; mouse, in vivo, ip): lower toxic side effects
- Pain threshold (tail flick) ([2]; 0 min): 2.31 ± 0.12 s
- Pain threshold (tail flick) ([2]; 15 min): 2.12 ± 0.21^∧∧ s
- Pain threshold (tail flick) ([2]; 30 min): 2.12 ± 0.12 s
- Pain threshold (tail flick) ([2]; 45 min): 3.22 ± 0.12^∧ s
- Pain threshold (tail flick) ([2]; 60 min): 2.12 ± 0.21*^∧ s
- Pain threshold (tail flick) ([2]; 75 min): 2.12 ± 0.12 s
- Pain threshold (tail flick) ([2]; 90 min): 2.32 ± 0.14 s
- difference from the conotoxin group during a time period (^^P<0.01) ([2]; mouse, in vivo): significantly different from the conotoxin group
- analgesic effects in formalin-induced pain experiments [3]: good analgesic effects
- cumulative foot licking time, Phase I [3]: 46.44 ± 10.28*^
- cumulative foot licking time, Phase II [3]: 42.10 ± 14.32*^
- Movement distances of mice in open field tests ([4]; 1 h): 20.39 ± 1.21^
- Movement distances of mice in the center area in open field tests ([4]; 1 h): 20.39 ± 1.21^
- Movement distances of mice in the peripheral area in open field tests ([4]; 1 h): 20.39 ± 1.21^
- Number of entrances to the center area in open field tests ([4]; 1 h): 20.39 ± 1.21^
- Number of entrances to the peripheral area in open field tests ([4]; 1 h): 20.39 ± 1.21^
- Residence time in the center area in open field tests ([4]; 1 h): 20.39 ± 1.21^ s
- Residence time in the peripheral area in open field tests ([4]; 1 h): 20.39 ± 1.21^ s
- Movement distances of mice in open field tests ([4]; 24 h): 18.99 ± 1.48 m
- Movement distances of mice in the center area in open field tests ([4]; 24 h): 18.99 ±1.48 m
- Movement distances of mice in the peripheral area in open field tests ([4]; 24 h): 18.99 ± 1.48 m
- Number of entrances to the center area in open field tests ([4]; 24 h): 18.99 ± 1.48
- Number of entrances to the peripheral area in open field tests ([4]; 24 h): 18.99 ± 1.48
- Residence time in the center area in open field tests ([4]; 24 h): 18.99 ± 1.48 s
- Residence time in the peripheral area in open field tests ([4]; 24 h): 18.99 ± 1.48 s
- Movement distances of mice in open field tests ([4]; Time 0): 20.57 ± 1.65 m
- Movement distances of mice in the center area in open field tests ([4]; Time 0): 20.57 ±1.65 m
- Movement distances of mice in the peripheral area in open field tests ([4]; Time 0): 20.57 ± 1.65 m
- Number of entrances to the center area in open field tests ([4]; Time 0): 20.57 ± 1.65
- Number of entrances to the peripheral area in open field tests ([4]; Time 0): 20.57 ± 1.65
- Residence time in the center area in open field tests ([4]; Time 0): 20.57 ± 1.65 s
- Residence time in the peripheral area in open field tests ([4]; Time 0): 20.57 ± 1.65 s
- side effects compared with conotoxin (open field) ([4]; mouse, in vivo, ip): lower side effects
- various indexes in open field experiments compared with the normal saline group ([4]; mouse, in vivo, ip): no significant difference
- animal reaction thresholds ([5]; 50 μg/kg and 100 μg/kg, injected subcutaneously): significantly increased
- time the pain thresholds lasted [5, 10]: 1 h
- highest pain threshold on the operative side [5, 10]: 2.3 ± 0.5 g
- pain threshold on the opposite side [5, 10]: 1.2 ± 0.2 g
- time the effect on the operative side lasted [5, 11]: about 8 h
- highest pain threshold on the operative side [5, 11]: 7.4 ± 0.9 g
- pain threshold on the opposite side [5, 11]: 3.2 ± 1.3 g
- pain threshold change ([5]; 300 μg/kg, subcutaneously): not significantly increased
- Pain threshold ([5]; Dose 50 (μg/kg), 0 h): 25.44 ± 0.23 s
- Pain threshold ([5]; Dose 50 (μg/kg), 1 h): 26.35 ± 0.65 s
- Pain threshold ([5]; Dose 50 (μg/kg), 2 h): 26.89 ± 0.23 s
- Pain threshold ([5]; Dose 50 (μg/kg), 3 h): 27.56 ± 0.56 s
- Pain threshold ([5]; Dose 50 (μg/kg), 4 h): 26.45 ± 0.78 s
- Pain threshold ([5]; Dose 50 (μg/kg), 5 h): 25.89 ± 0.12 s
- Pain threshold ([5]; Dose 100 (μg/kg), 0 h): 25.11 ± 0.56 s
- Pain threshold ([5]; Dose 100 (μg/kg), 1 h): 27.86 ± 0.95 s
- Pain threshold ([5]; Dose 100 (μg/kg), 2 h): 28.12 ± 0.65 s
- Pain threshold ([5]; Dose 100 (μg/kg), 3 h): 29.46 ± 0.61 s
- Pain threshold ([5]; Dose 100 (μg/kg), 4 h): 26.43 ± 0.62 s
- Pain threshold ([5]; Dose 100 (μg/kg), 5 h): 25.68 ± 0.33 s
- Pain threshold ([5]; Dose 300 (μg/kg), 0 h): 26.65 ± 0.41 s
- Pain threshold ([5]; Dose 300 (μg/kg), 1 h): 30.56 ± 0.11 s
- Pain threshold ([5]; Dose 300 (μg/kg), 2 h): 30.53 ± 0.62 s
- Pain threshold ([5]; Dose 300 (μg/kg), 3 h): 29.56 ± 0.12 s
- Pain threshold ([5]; Dose 300 (μg/kg), 4 h): 28.15 ± 0.32 s
- Pain threshold ([5]; Dose 300 (μg/kg), 5 h): 27.15 ± 0.65 s
- Movement duration of mice in forced swimming tests ([6]; 1 h): 20.39 ± 1.21^ s
- Movement duration of mice in forced swimming tests ([6]; 24 h): 18.99 ± 1.48 s
- Movement duration of mice in forced swimming tests ([6]; Time 0): 20.57 ± 1.65 s
- toxic side effects compared with the conotoxin (forced swimming) ([6]; mouse, in vivo, ip): lower toxic side effects
- left foot lifting behavior [7]: obviously observed
- Pain threshold ([8]; 0 min): 28.32 ± 0.21 s
- Pain threshold ([8]; mouse, in vivo, ip): 25.21 ± 0.42^∧∧ s and 31.32 ± 0.32*^∧ s and 24.23 ± 0.42^∧ s and 21.39 ± 0.45^∧ s and 29.23 ± 0.42 s and 23.44 ± 0.24 s
- heat thresholds of mice compared with the normal saline negative control group ([8]; mouse, in vivo, ip): effectively increase the heat thresholds of mice
- increase of the latency of foot lifting ([9]; 14th day after inoculation): particularly significant
- Latency of foot lifting before administration ([9]; heat radiation stimulation, before administration): 10.56 ± 0.89
- Latency (D) of foot lifting after administration ([9]; heat radiation stimulation, day 4): 10.01 ± 0.23
- Latency (D) of foot lifting after administration ([9]; heat radiation stimulation, day 7): 9.26 ± 0.99
- Latency (D) of foot lifting after administration ([9]; heat radiation stimulation, day 10): 8.56 ± 0.23
- Latency (D) of foot lifting after administration ([9]; heat radiation stimulation, day 14): 7.44 ± 0.85
